Assay results taken from patent publication US11529318B2, “Devices and methods for local delivery of tacrolimus” (UNIVERSITY OF PITTSBURGH—OF THE COMMONWEALTH SYSTEM OF …, priority 2017, dated 2022).

What was measured:
[1] = Tacrolimus concentration in infra orbital nerves, muscle and PEUU wraps (Example 3); assay type: in vivo, Lewis rats; settings: Lewis, rat, daily intraperitoneal injections 1 mg/kg for 14 days
Protocol: Animals and Surgeries. All animals received care in compliance with the Institutional Animal Care and Use Committee and protocol approval from the University of Pittsburgh and followed guidelines from the Guide for the Care and Use of Laboratory Animals published by the U.S. National Institutes of Health. 10 Lewis rats (RT1) per group (treatment group, non-treatment group), aged 8-10 weeks, were anesthetized with 50 mg/kg intraperitoneal pentobarbital sodium and supplemented as necessary with 10 mg/kg injections. Sterile technique were utilized for all surgeries and a heating pad was used to maintain core animal temperature at 37° C.
The surgical procedure is described in depth in Xiao et al., 2016 and is briefly defined here. Proximal to the mystacial pad, an incision was made on the left hemiface distal to where the infraorbital nerve exits from the infraorbital foramen. Tissue was discretely dissected in order to expose the infraorbital branch of the trigeminal nerve and was transected using microscissors. […]
Quantification of Tacrolimus concentration in infra orbital nerves, muscle, and PEUU wraps. […] Drug concentration was measured by L-CMS/MS and the results were expressed as ng/g of tissue or wrap weight.
Quantification of Tacrolimus by LC-Tandem Mass Spectrometry (LC-MS/MS). […]

[2] = reference range; cited from earlier work
[3] = tested on: retinal ganglion cells (RGCs); test: RGC viability analysis (calcein/propidium iodide live/dead kit); assay type: cell-based, rat; settings: for IC50: primary P3 rat RGCs, 3 days in vitro, 0.1 to 100 μM
Protocol: (§1) Retinal ganglion cell isolation. RGCs were isolated from female and male postnatal day three (P3) Sprague-Dawley rat pups, purified by immunopanning, and cultured in NB-SATO media as previously described (Barres, Silverstein et al. 1988). The RGCs were seeded (5×10^3/cm^2) on cell culture plates coated with poly-D-lysine (70 kDa, 10 μg/mL; Sigma-Aldrich Corp., St. Louis, Mo., USA) and laminin (2 μg/mL, Sigma-Aldrich Corp.), and maintained at 37° C. in 10% CO2 for 3 days.
(§2) RGC viability analysis. To analyze RGC viability a calcein and propidium iodide based live/dead kit was used after 3 DIV per the manufacturer's instructions (Life Technologies, R37601). Briefly, RGC cultures were incubated in the live/dead reagent for 15 minutes at room temperature and five random fields per well were imaged at 20× using standard epi-fluorescence fluorescein and rhodamine filter sets (Zeiss, Axio Observer). Live and dead cells were analyzed using ImageJ (National Institutes of Health, Bethesda, Md., USA). All graphical data represents three independent experimental repeats.

[4] = as above; assay type: cell-based, rat; settings: both sexes, Sprague-Dawley, rat, primary retinal ganglion cells (RGCs), 3 days in vitro
Protocol: as §1, §2

[5] = tested on: retinal ganglion cells (RGCs); test: RGC neurite growth and branching analysis; assay type: cell-based, rat
Protocol: as §1
RGC neurite growth analysis. Neurite growth was analyzed as previously described (Steketee, Oboudiyat et al. 2014). Briefly, RGCs were fixed after 3 DIV with 4% paraformaldehyde (Alfa Aesar; 30525-89-4) in PBS, washed with PBS (2×), and permeabilized with 0.2% triton X-100 in PBS for 15 minutes. After blocking for 1 hour (1% BSA, Fisher Scientific), the RGCs were incubated in anti-β III tubulin (1:300, TUJ-1, Millipore) at 4° C. overnight, washed in PBS (3×), incubated with a FITC-rabbit anti-chicken IgY H+L (1:150, #31501, Thermo Scientific) for 3 hours, washed with PBS (3×), counterstained with the nuclear marker DAPI (1:3000, Invitrogen) for 20 minutes at room temperature, and washed in PBS (2×, 5 min. each). The RGCs were observed as above using epifluorescent microscopy and analyzed using the ImageJ plugin, NeuronJ (National Institutes of Health, Bethesda, Md., USA). Neurites were defined as any projection longer than twice the cell body, and branches were quantified as the number of secondary neurites extending from a primary neurite that originated at the cell body. At least 30 neurons were analyzed blindly as previously described for three independent experimental repeats, totaling at least 90 neurons per condition.

[6] = Tacrolimus concentration in whole blood (Example 3); assay type: in vivo, Lewis rats; settings: Lewis, rat, intraperitoneal, 1 mg/kg, read-out: trough tacrolimus blood levels
Protocol: Quantification of Tacrolimus by LC-Tandem Mass Spectrometry (LC-MS/MS). Fifty microliters of blood containing an unknown concentration of Tacrolimus was added to a conical centrifugation tube, followed by 200 μL of zinc sulfate heptahydrate (ZnSO4.7H2O) to precipitate plasma proteins. Five hundred microliters of an acetonitrile based solution containing a deuterated internal standard (ascomycin) at a concentration of 15 ng/ml was then added, and the mixture was vortexed at 3000 rpm for 2 minutes and centrifugated at 13,000 rpm for 3 minutes and the supernatants collected in LCMS vials for analysis.
Analysis was performed using a fully validated, reverse phased method for the detection of TAC in blood on a Waters micromass Quattro micro API mass spectrometer that is operated in positive electrospray ionization mode, utilizing multiple reaction monitoring, with an injection volume of 20 μL. The Waters 2795 Alliance Separations Module was equipped with a nova-pack® C18 column, 2.1×10 mm cartridge (Waters #186003523) heated to 55° C. Analytes were effectively separated using a gradient elution consisting of an aqueous mobile phase (95% H2O/5% MeOH) and an organic mobile phase (100% MeOH), at a flow rate of 0.6 mL per minute. Mobile phases also contained 0.1% formic acid (CH2O2) and 2 mM ammonium acetate.

GAP-43 expression = test: GAP-43 immunohistochemistry of optic nerve after optic nerve crush; assay type: in vivo, Sprague-Dawley rats; settings: 14 days after optic nerve crush, systemic tacrolimus treatment

concentration at 14 days ([1]; infra orbital nerves (IONs), read-out: tacrolimus concentration in IONs): ~196 ng/g
concentration at 14 days ([1]; muscle, read-out: tacrolimus concentration in muscle): ~172 ng/g
concentration at 24 h ([6]; 24 hours post systemic injection): 18.8 ± 14.8 ng/mL
concentration at 14 days ([6]; 14 days, systemically treated animals): 14 ± 10.6 ng/mL
SMILES: C=CC[C@@H]1/C=C(\C)C[C@H](C)C[C@H](OC)[C@H]2O[C@@](O)(C(=O)C(=O)N3CCCC[C@H]3C(=O)O[C@H](/C(C)=C/[C@@H]3CC[C@@H](O)[C@H](OC)C3)[C@H](C)[C@@H](O)CC1=O)[C@H](C)C[C@@H]2OC [tacrolimus]
therapeutic trough levels (blood) [2]: 5 to 10 ng/mL
increase in RGC viability versus EtOH vehicle (70%) ([3]; 0.5 μM tacrolimus): 17.4%
IC50 ([3]; Rattus norvegicus, 72 h): 24.2 µM
effect of dosage on neuron survival (live/dead study) ([3]; discussion statement): no significant effect
IC50 [3]: 25 µM
viability at 3 days, 0.5 μM ([4]; 0.5 μM tacrolimus): 87.4%
viability at 3 days, 50 μM ([4]; 50 μM tacrolimus): 0%
share of the increase in total neurite growth manifested in axon growth [5]: 90%
neurite growth compared to all other conditions, including media control ([5]; 50 μM and 100 μM tacrolimus): significantly decreased
longest neurite (axon) growth ([5]; 3 DIV): increased
neurite branching ([5]; 3 DIV): without a change
concentration at which total neurite growth was optimal ([5]; 3 DIV, axons and dendrites): 5 µM
axonal outgrowth ([5]; assays with RGCs and microglia): did not show an increase
total and longest neurite growth ([5]; assays with RGCs only): significantly increased
GAP-43 expression in optic nerve (GAP-43 expression): no significant GAP-43 expression
